The values that follow are results of earlier work, collected in patent publication US7612214B2, “Organic amine salts of glutamic acid derivatives and their application” (Ajinomoto Co., Inc., priority 2003, dated 2009).

Several values for one entry are separate records, joined by “and”; a condition that tells them apart may be missing. Equal entries are not always repeated.

The conditions of the data set: (2S,4S) isomer derived from the natural plant; literature report (Vleggaar et al.).

On to `N[C@@H](C[C@@](O)(Cc1c[nH]c2ccccc12)C(=O)O)C(=O)O` [(2S,4S) isomer, (2S,4S)-2-amino-4-carboxy-4-hydroxy-5-(3-indolyl)pentanoic acid], for which the degree of sweetness is 800 times of sucrose and 1400 times of sucrose.
